Entries after “also recorded” stand apart in the source; their conditions may differ. Where no end group is shown, it is not given here. [ ]: non-standard residue; d: D form. Nle = CCCC[C@H](N)C(=O)O
What was measured:
[1] = test system: C57BL/6 mice; test: Hair cycle synchronized animal model, cyclophosphamide induced alopecia; type: in vivo, mouse; conditions: for mice with observable hair regrowth: day 13, 30 μg/kg/day, control 1 of 5; for percentage of the area with hair regrowth: day 13, FIG. 1; for number of mature hair follicles present: day 19, histology, FIG. 2
Excerpt: Adolescent, 6- to 8-week-old female, C57BL/6 mice (Simonson, Gilroy, Calif.) with normal, black fur were purchased and housed in community cages with 12-hour light cycles with mouse chow and water ad libitum. In contrast to the mosaic cycling of human hair follicles, these mice display a unique hair cycle synchronization, which makes them a most productive model for hair research. Only mice in the resting stage of the hair cycle (telogen) are used for these studies. In the truncal skin of mice all melanocytes reside in hair follicles, and pigment production (melanogenesis) occurs exclusively in anagen follicles. Thus, telogen C57BL/6 mice can be recognized reliably by the homogeneously pink color of their back skin.
Predictable and highly synchronized anagen development can only be achieved with anagen induction by depilation, as opposed to spontaneous anagen development. Thus, anagen was induced in the back skin of telogen mice by depilation so that, at the start of pharmacological manipulation, all hair follicles in the depilated back skin area of all mice are in exactly the same stage of anagen development. As soon as anagen VI had been reached, all mice were injected once with a high dose of cyclophosphamide. In all experiments, control and test mice were then compared for signs of hair loss, for skin color changes indicating the effect of test drugs on hair cycling and follicle melanogenesis, and for hair regrowth.
Under ketamine hydrochloride-induced general anesthesia, telogen mice that had gone through several postnatal hair cycles were induced to enter anagen by depilation of all telogen hair shafts. This was done by applying a melted wax/rosin mixture to the back skin and by peeling off this mixture after hardening. By this technique, all depilated telogen hair follicles immediately begin to transform into anagen follicles with their associated melanogenesis.
As soon as early anagen VI had been reached by these induced anagen follicles, ie, on day 9 postdepilation (p.d.), a single intraperitoneal injection of cyclophosphamide was given (150 mg/kg).
Chemotherapy induced alopecia was manipulated pharmacologically by administration of the active agents of the present invention, topically or by subcutaneous injection once daily until necropsy. Pigmentation, hair regrowth, and follicle histology are analyzed as indicated. Particular attention is paid to any retarding or enhancing effects on the degree of alopecia, to the hair regrowth pattern, and to the pigmentation of regrowing hair shafts.
After the cyclophosphamide injection on day 9 p.d, the back skin of test and control mice were examined daily for a period of up to 32 days for signs of alopecia and color conversion from black to pink, indicating the progression of anagen follicles in the hair cycle via catagen to telogen. This color change results from the abrupt termination of melanogenesis in follicular melanocytes very early during catagen development. Visible changes were recorded and photodocumented. Starting 1 week after CYP injection, the skin was examined daily for signs of hair regrowth, skin repigmentation, and the quality of hair shaft pigmentation.
In C57BL/6 mice of this age group, depilation induced anagen follicles spontaneously enter catagen between days 17 and 20 p.d., mostly around day 18. The development of catagen follicles was indicated macroscopically by a change in skin color from black to light gray and occurs in large waves, appearing first in the neck region. then on the flanks, until finally the tail region enters catagen. Within 1 to 2 days after catagen induction, the follicle enters telogen, as indicated by a skin color change from gray to pink. […]

[2] = test system: C57BL/Ksj-db/db diabetic mice; test: Full-thickness excision model, mouse: hair follicle regeneration; type: in vivo; conditions: day 26, topical in 10% CMC or subcutaneous, not observed in placebo
Protocol: (§1) Materials: The viscous vehicle was prepared from carboxymethylcellulose (CMC sodium salt, low viscosity, Sigma, St. Louis, Mo., Lot Number 34H0310) consisting of 10% low viscosity CMC in 0.05 M phosphate buffer, pH. 7.2, and sterilized by autoclaving followed by mixing with sterile peptide solutions. For subcutaneous administration, the peptides were dissolved in Lactated Ringers' Solution. […] 9GD (SEQ ID NO:41) was prepared by the Microchemical Core Laboratory at USC.
(§2) Surgical model: During the experimental period, C57BL/Ksj-db/db diabetic mice (Jackson Laboratories, Cold Spring Harbor, Me.) or Sprague Dawley rats were housed one per cage and maintained in a central animal care facility with a 12-hour light/dark cycle. Water and standard rodent laboratory chow were supplied ad libitum. All animals used for this study received humane care as defined by the National Research Council's criteria for humane care. The study protocols were approved by the University of Southern California's Institutional Animal Care and Use Committee before initiation of the studies.
Mouse Model: On day 0, C57BL/Ksj-db/db diabetic mice were anesthetized with intramuscular ketamine/xylazine and backs were swabbed with 70% isopropyl alcohol followed by betadine. Afterwards, a 1.3 cm diameter full thickness skin area was excised on the back of each mouse. […]

[3] = test system: Sprague Dawley rats; test: Full-thickness excision model, rat: hair follicle regeneration; type: in vivo; conditions: day 21, topical in 10% CMC or subcutaneous, not observed in placebo
Protocol: as §1, §2
Rat Model: Female Sprague-Dawley rats, 175 to 200 grams, were anesthetized with intramuscular ketamine/rompun. The backs of the rats were shaved with animal clippers, scrubbed with betadine, and washed with 70% alcohol before surgery. […]

[4] = test system: patients with newly diagnosed breast cancer receiving doxorubicin and cyclophosphamide; test: Phase I/II dose escalation study of AII(1-7) before and after chemotherapy; adverse event alopecia; type: in vivo, human; conditions: for incidents of alopecia associated with chemotherapy: breast cancer patients, doxorubicin 60 mg/m2 and cyclophosphamide 600 mg/m2, subcutaneous once daily
Protocol: Dose escalation within an individual patient was not permitted.
Following the rest period, a chemotherapy regimen containing doxorubicin 60 mg/m^2 and cyclophosphamide 600 mg/m^2 was initiated.
An adverse event (AE) was considered any unfavorable or unintended change in structure, function, signs, or symptoms temporally associated with the use of a medicinal product experienced by a person administered a pharmaceutical product, whether or not a causal relationship with the product has been established. During the conduct of this clinical trial, study personnel asked open-ended questions to obtain information about AEs at every visit. Signs and symptoms were graded by the Investigator using the WHO toxicity criteria. For alopecia, no notation was made if there was no hair loss. If there was hair loss, it was graded as mild (1) or pronounced (2). In this trial, the incidents of alopecia associated with chemotherapy were as follows: […]

[5] = Fragments tested for effectiveness (test not specified)

With Asp-Arg-Val-Tyr-Ile-His-Pro [AII(1-7)] the “mice with observable hair regrowth” value [1] was 4 of 5, the “percentage of the area with hair regrowth” value [1] was “significantly increased” and the “number of mature hair follicles present” value [1] was “increased”. The “microscopic examination of wound site: new adnexal structures (new hair follicles)” value (“microscopic examination of wound site” below) [2] was “formation of new adnexal structures”, the “microscopic examination of wound site” value [3] was “formation of new adnexal structures” and the “incidents of alopecia associated with chemotherapy” value [4] was 46%. For the same molecule, the “effect on alopecia in chemotherapy patients relative to control” value ([4]; chemotherapy patients) was “significantly decreased alopecia”.

In the case of “DR(nor)YIHP (DR[Nle]YIHP) [Analogue 9GD]”, the “mice with observable hair regrowth” value [1] is reported as 5 of 5, the “percentage of the area with hair regrowth” value [1] is reported as “significantly increased” and the “number of mature hair follicles present” value [1] is reported as “increased”. The “microscopic examination of wound site” value [2] was “formation of new adnexal structures” and the “microscopic examination of wound site” value [3] was “formation of new adnexal structures”.

With His-Pro-Phe (HPF) [AII(6-8)] the effectiveness [5] was “not to be effective”.

In the case of Tyr-Ile-His-Pro-Phe (YIHPF) [AII(4-8)], the effectiveness [5] is reported as “not to be effective; also recorded: ineffective”.

B1: Filgratim: filgrastim (NEUPOGEN, Amgen, Inc.), comparator arm (protein, chains of the INN, looked up)
chain: MTPLGPASSLPQSFLLKCLEQVRKIQGDGAALQEKLCATYKLCHPEELVLLGHSLGIPWAPLSSCPSQALQLAGCLSQLHSGLFLYQGLLQALEGISPELGPTLDTLQLDVADFATTIWQQMEELGMAPALQPTQGAMPAFASAFQRRAGGVLVASHLQSFLEVSYRVLRHLAQP
For B1, the “incidents of alopecia associated with chemotherapy” value [4] was 40%.
